Literature values, collected in US20070082339A1, “Methods and compositions for screening for HDAC inhibitory activity” (priority 2005, published 2007).

Test system: BID
Conditions: T cell leukemia cells; independently of caspase activity; cited from earlier work

For `O=C(CCCCCCC(=O)Nc1ccccc1)NO` [SAHA], the BID cleavage is listed as “cleaved”.
